Data taken from ChEMBL document CHEMBL5518172, “Discovery of hydroxamate as a promising scaffold dually inhibiting metallo- and serine-β-lactamases” (Eur J Med Chem, 2024).
The source made the active and inactive calls. No cut-off for these calls is given here.

How the values were obtained:
Escherichia coli [1] = assay: Synergistic antibacterial activity against Escherichia coli BL21 (DE3) harboring metallo-beta-lactamase IMP-1 assessed as reduction in meropenem MIC upto 256 microg/ml in presence of meropenem by microdilution checkerboard assay; format: functional, organism-based; settings: dose <= 256.0 µg/ml
Bacteria [2] = assay: (§1) Destabilization of recombinant serine beta lactamase KPC-2 (unknown origin) expressed in Escherichia coli BL21 (DE3) cells assessed as thermal stabilization by measuring melting temperature at 50 uM incubated under 25 to 80 degreeC by SYPRO orange dye based thermal shift assay (reference value: 55.4 degreeC)
Escherichia coli [3] = assay: Synergistic antibacterial activity against Escherichia coli clinical isolate 10 assessed as fold decrease in meropenem MIC at 64 microg/ml measured after 16 hrs by CLSI protocol based broth microdilution method; format: functional; settings: dose 64 µg/ml
Escherichia coli [4] = assay: Synergistic antibacterial activity against Escherichia coli harboring serine beta-lactamase OXA-48 infected in Kunming mouse model assessed as reduction in bacterial load in spleen at 20 mg/kg, ip co-administered with 1 mg/kg of meropenem; format: functional, organism-based
Escherichia coli [5] = assay: Synergistic antibacterial activity against Escherichia coli BL21 (DE3) harboring metallo-beta-lactamase IMP-1 assessed as meropenem MIC at 64 microg/ml measured after 16 hrs by CLSI protocol based broth microdilution method (reference value: 64 microg/ml); format: functional; settings: dose 64 µg/ml
Escherichia coli [6] = assay: Synergistic antibacterial activity against Escherichia coli BL21 (DE3) harboring serine beta lactamase KPC-2 assessed as meropenem MIC at 64 microg/ml measured after 16 hrs by CLSI protocol based broth microdilution method (reference value: 16 microg/ml); format: functional; settings: dose 64 µg/ml
Bacteria [7] = assay: Inhibition of recombinant serine beta lactamase OXA-48 (unknown origin) expressed in Escherichia coli BL21 (DE3) cells assessed as maximal inhibition at 5 uM measured after 0.5 hrs
Escherichia coli [8] = assay: Synergistic antibacterial activity against Escherichia coli clinical isolate 10 assessed as meropenem MIC at 64 microg/ml measured after 16 hrs by CLSI protocol based broth microdilution method (reference value: 512 microg/ml); format: functional; settings: dose 64 µg/ml
Bacteria [9] = assay: Inhibition of recombinant serine beta lactamase KPC-2 (unknown origin) expressed in Escherichia coli BL21 (DE3) cells assessed as reduction in residual activity at 0.25 to 5 uM; settings: dose 0.25-5 µM, time 360.0 min, TDE = time-dependent effect
Escherichia coli [10] = assay: Synergistic antibacterial activity against Escherichia coli clinical isolate 06 assessed as fold decrease in meropenem MIC at 64 microg/ml measured after 16 hrs by CLSI protocol based broth microdilution method; format: functional; settings: dose 64 µg/ml
Bacteria [11] = assay: as §1, with “OXA-48” for “KPC-2”, “54.6” for “55.4”
[12] = biological target: Metallo-beta-lactamase type 2 (Bacteria) (UniProt C7C422); assay: Destabilization of recombinant NDM-1 (unknown origin) expressed in Escherichia coli BL21 (DE3) cells assessed as thermal stabilization by measuring melting temperature at 50 uM incubated under 25 to 80 degreeC by SYPRO orange dye based thermal shift assay (reference value: 52.6 degreeC)
Sequence of Metallo-beta-lactamase type 2 (Bacteria) (C7C422 whole entry): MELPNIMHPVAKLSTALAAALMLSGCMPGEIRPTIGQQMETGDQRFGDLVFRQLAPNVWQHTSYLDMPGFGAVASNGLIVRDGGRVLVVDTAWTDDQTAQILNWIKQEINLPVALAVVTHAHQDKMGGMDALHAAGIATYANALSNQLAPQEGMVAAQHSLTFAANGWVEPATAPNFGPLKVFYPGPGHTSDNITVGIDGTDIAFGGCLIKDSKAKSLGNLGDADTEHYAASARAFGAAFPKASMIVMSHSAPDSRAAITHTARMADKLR

Escherichia coli [13] = assay: Synergistic antibacterial activity against Escherichia coli BL21 (DE3) harboring NDM-1 assessed as decrease in bacterial colony at 128 microg/ml incubated for 12 hrs in presence of meropenem by imaging analysis; format: functional, organism-based; settings: dose 128.0 µg/ml
Bacteria [14] = assay: Irreversible inhibition of recombinant metallo-beta-lactamase IMP-1 (unknown origin) expressed in Escherichia coli BL21 (DE3) cells using cefazolin as substrate assessed as reduction in residual activity at 5 uM preincubated for 6 hrs followed by dialysis and measured after 24 hrs

## O=C(CCCc1ccccc1)NOC(=O)OCc1ccccc1
Escherichia coli [1]
  Activity: Active
Bacteria [2]
  Tm: 51.4 °C
Escherichia coli [3]
  fold change (FC): 2
Escherichia coli [4]
  Activity: Active
Escherichia coli [5]
  MIC: 16 µg/mL
Escherichia coli [6]
  MIC: 4 µg/mL
Bacteria [7]
  inhibition: Active
Escherichia coli [8]
  MIC: 64 µg/mL
Bacteria [9]
  inhibition: Tde
Escherichia coli [10]
  fold change (FC): 2
Bacteria [11]
  Tm: 53.9 °C
[12]
  Tm: 49.8 °C
Escherichia coli [13]
  Activity: Active
Bacteria [14]
  inhibition: Active
